# Experimental data: PubChem BioAssay (NCI)
#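 Five compound concentrations were applied to cells in 96-well plates for 48 hours; endpoints were derived by simple linear interpolation of the resulting dose-response curve. Here, GI50 denotes the concentration required for 50% inhibition of growth. TGI marks complete inhibition of growth.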
# Columns and labels:
# Assay in all cases: growth of human tumour cells (NCI), 48 h
# [1] = tested on: A498 renal
# [2] = tested on: HS 578T breast
# [3] = tested on: SR leukemia
# [4] = tested on: CAKI-1 renal
# [5] = tested on: HOP-92 NSCLC
# [6] = tested on: SK-MEL-2 melanoma
# [7] = tested on: SNB-75 CNS
# [8] = tested on: NCI/ADR-RES ovarian
# [9] = tested on: MALME-3M melanoma
# [10] = tested on: SF-295 CNS
# [11] = tested on: RXF 393 renal
# [12] = tested on: HCT-15 colon
# [13] = tested on: SK-MEL-28 melanoma
# [14] = tested on: M14 melanoma
# [15] = tested on: SF-268 CNS
# [16] = tested on: NCI-H226 lung
# [17] = tested on: OVCAR-3 ovarian
# [18] = tested on: OVCAR-4 ovarian
# [19] = tested on: COLO 205 colon
# [20] = tested on: SK-OV-3 ovarian
# [21] = tested on: SW-620 colon
# [22] = tested on: OVCAR-5 ovarian
# [23] = tested on: SNB-19 CNS
# [24] = tested on: SK-MEL-5 melanoma
# [25] = tested on: T-47D breast
# [26] = tested on: EKVX NSCLC
# [27] = tested on: TK-10 renal
# [28] = tested on: CCRF-CEM leukemia
# [29] = tested on: A549 NSCLC
# [30] = tested on: NCI-H460 lung
# [31] = tested on: DU-145 prostate
# [32] = tested on: NCI-H522 lung
# [33] = tested on: HL-60(TB) leukemia
# [34] = tested on: U251 CNS
# [35] = tested on: ACHN renal
# [36] = tested on: OVCAR-8 ovarian
# [37] = tested on: PC-3 prostate
# [38] = tested on: 786-0 renal
# [39] = tested on: HOP-62 NSCLC
# [40] = tested on: UACC-257 melanoma
# [41] = tested on: HCC-2998 colon
# [42] = tested on: MCF7 breast
# [43] = tested on: KM12 colon
# [44] = tested on: MDA-MB-435
# [45] = tested on: IGROV1 ovarian
# [46] = tested on: NCI-H23 lung
# [47] = tested on: SF-539 CNS
# [48] = tested on: HCT-116 colon
# [49] = tested on: LOX IMVI melanoma
# [50] = tested on: MDA-MB-231 breast
# [51] = tested on: UO-31 renal
# [52] = tested on: UACC-62 melanoma
# [53] = tested on: K-562 leukemia
# [54] = tested on: MOLT-4 leukemia
# [55] = tested on: RPMI-8226 leukemia
# [56] = tested on: SN12C renal
# [57] = tested on: HT29 colon
# [58] = tested on: BT-549 breast
smiles,measurement,setting,value
COc1cc2ncnc(-n3ncc4cc(NC(=O)Nc5ccc(Cl)c(Cl)c5)ccc43)c2cc1OC,GI50,[1],2.37 µM
same,TGI,[1],6.24 µM
same,GI50,[2],2 µM
same,TGI,[2],7.95 µM
same,GI50,[3],2.75 µM
same,TGI,[3],> 100 µM
same,GI50,[4],2.3 µM
same,TGI,[4],5.94 µM
same,GI50,[5],1.92 µM
same,TGI,[5],4.19 µM
same,GI50,[6],2.31 µM
same,TGI,[6],5.01 µM
same,GI50,[7],1.24 µM
same,TGI,[7],3.41 µM
same,GI50,[8],2.36 µM
same,TGI,[8],6.23 µM
same,GI50,[9],1.72 µM
same,TGI,[9],3.89 µM
same,GI50,[10],1.38 µM
same,TGI,[10],2.94 µM
same,GI50,[11],1.53 µM
same,TGI,[11],3.29 µM
same,GI50,[12],1.93 µM
same,TGI,[12],4.87 µM
same,GI50,[13],1.57 µM
same,TGI,[13],3.24 µM
same,GI50,[14],1.65 µM
same,TGI,[14],3.58 µM
same,GI50,[15],2.44 µM
same,TGI,[15],7.32 µM
same,GI50,[16],2.45 µM
same,TGI,[16],4.8 µM
same,GI50,[17],1.92 µM
same,TGI,[17],3.7 µM
same,GI50,[18],1.92 µM
same,TGI,[18],3.89 µM
same,GI50,[19],2.32 µM
same,TGI,[19],5.58 µM
same,GI50,[20],2.04 µM
same,TGI,[20],4.03 µM
same,GI50,[21],2.26 µM
same,TGI,[21],4.76 µM
same,GI50,[22],1.83 µM
same,TGI,[22],4.31 µM
same,GI50,[23],2.66 µM
same,TGI,[23],9.58 µM
same,GI50,[24],2.09 µM
same,TGI,[24],3.89 µM
same,GI50,[25],2.39 µM
same,TGI,[25],7.17 µM
same,GI50,[26],3.06 µM
same,TGI,[26],9.84 µM
same,GI50,[27],2.38 µM
same,TGI,[27],6.45 µM
same,GI50,[28],4.01 µM
same,TGI,[28],42.3 µM
same,GI50,[29],2.69 µM
same,TGI,[29],5.75 µM
same,GI50,[30],2.08 µM
same,TGI,[30],4.57 µM
same,GI50,[31],3.2 µM
same,TGI,[31],11.9 µM
same,GI50,[32],2.5 µM
same,TGI,[32],6 µM
same,GI50,[33],4.44 µM
same,TGI,[33],85 µM
same,GI50,[34],1.5 µM
same,TGI,[34],3.06 µM
same,GI50,[35],1.45 µM
same,TGI,[35],3.25 µM
same,GI50,[36],2.77 µM
same,TGI,[36],7.07 µM
same,GI50,[37],1.55 µM
same,TGI,[37],3.24 µM
same,GI50,[38],1.56 µM
same,TGI,[38],3.52 µM
same,GI50,[39],1.91 µM
same,TGI,[39],3.76 µM
same,GI50,[40],3.23 µM
same,TGI,[40],6.79 µM
same,GI50,[41],2.61 µM
same,TGI,[41],8.87 µM
same,GI50,[42],1.85 µM
same,TGI,[42],4.56 µM
same,GI50,[43],0.0514 µM
same,TGI,[43],9.66 µM
same,GI50,[44],1.84 µM
same,TGI,[44],4.29 µM
same,GI50,[45],2.05 µM
same,TGI,[45],4.66 µM
same,GI50,[46],1.93 µM
same,TGI,[46],4.24 µM
same,GI50,[47],0.612 µM
same,TGI,[47],2.47 µM
same,GI50,[48],2.8 µM
same,TGI,[48],10.3 µM
same,GI50,[49],1.97 µM
same,TGI,[49],3.76 µM
same,GI50,[50],1.96 µM
same,TGI,[50],4.03 µM
same,GI50,[51],2.04 µM
same,TGI,[51],4.17 µM
same,GI50,[52],1.7 µM
same,TGI,[52],3.44 µM
same,GI50,[53],3.02 µM
same,TGI,[53],10.8 µM
same,GI50,[54],2.04 µM
same,TGI,[54],11.4 µM
same,GI50,[55],2.11 µM
same,TGI,[55],7.52 µM
same,GI50,[56],2.1 µM
same,TGI,[56],4.78 µM
same,GI50,[57],1.98 µM
same,TGI,[57],4.29 µM
same,GI50,[58],1.97 µM
same,TGI,[58],4.17 µM
